Series [1] concerns the target T1, human adenosine A2A receptor (Homo sapiens, UniProt P29274).
T1 construct: expressed in transfected cells; host or cells: CHO cells, semliki forest virus expression system; washed membrane pellet used
The experiment in a line: [3H]-SCH-58261 binding assay, human adenosine A2A receptor (CHO cell membranes, SPA). The settings on record: displacement of [3H]-SCH-58261 (1 nM); recombinant receptor in CHO membranes; Ki by Cheng-Prussoff equation; read-out: hA2 (pKi) (converted). On the procedure: Human Adenosine A2A Receptor
The human adenosine A2A receptor was recombinantly expressed in chinese hamster ovary (CHO) cells using the semliki forest virus expression system. Cells were harvested, washed twice by centrifugation, homogenised and again washed by centrifugation. The final washed membrane pellet was suspended in a Tris (50 mM) buffer containing 120 mM NaCl, 5 mM KCl, 2 mM CaCl2 and 10 mM MgCl2 (pH 7.4) (buffer A). The [^3H]-SCH-58261 (Dionisotti et al., 1997, Br J Pharmacol 121, 353; 1 nM) binding assay was carried out in 96-well plates in the presence of 2.5 μg of membrane protein, 0.5 mg of Ysi-poly-1-lysine SPA beads and 0.1 U adenosine deaminase in a final volume of 200 μl of buffer A. Non-specific binding was defined using xanthine amine congener (XAC; 2 μM). Compounds were tested at 10 concentrations from 10 μM–0.3 nM. All assays were conducted in duplicate and repeated at least two times. Assay plates were incubated for 1 hour at room temperature before centrifugation and then bound ligand determined using a Packard Topcount scintillation counter. IC50 values, the concentration where 50% of the […] binding is displaced, were calculated using a non-linear curve fitting program and Ki values calculated using the Cheng-Prussoff equation.
In general terms: Displacement assays read how much labelled ligand stays bound in the presence of the test substance.

T1 sequence (P29274 whole entry): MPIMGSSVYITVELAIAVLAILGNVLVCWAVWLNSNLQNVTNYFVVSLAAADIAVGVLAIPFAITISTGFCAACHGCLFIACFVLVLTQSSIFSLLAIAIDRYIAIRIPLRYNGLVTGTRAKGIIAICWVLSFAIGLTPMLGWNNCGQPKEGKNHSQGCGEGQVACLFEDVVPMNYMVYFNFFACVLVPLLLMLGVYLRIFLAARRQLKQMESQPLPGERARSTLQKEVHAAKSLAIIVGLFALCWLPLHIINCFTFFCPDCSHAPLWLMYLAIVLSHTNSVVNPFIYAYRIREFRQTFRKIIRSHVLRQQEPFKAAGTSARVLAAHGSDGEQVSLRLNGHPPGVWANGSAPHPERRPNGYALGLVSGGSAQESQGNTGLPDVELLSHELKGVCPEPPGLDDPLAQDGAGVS

Turning to `COc1ccc(N2CCOCC2)c2sc(NC(=O)N(C)[C@H]3CC[C@H](O)CC3)nc12` [Example 27, (trans)-1-(4-Hydroxy-cyclohexyl)-3-(4-methoxy-7-morpholin-4-yl-benzothiazol-2-yl)-1-methyl-urea], the melting point was in the range of 158 to 162 °C. Besides, the Ki in series [1] is 12.6 nM.

Regarding `COc1ccc(N2CCOCC2)c2sc(NC(=O)N(C)[C@H]3CC[C@@H](O)CC3)nc12` [Example 29, (cis)-1-(4-Hydroxy-cyclohexyl)-3-(4-methoxy-7-morpholin-4-yl-benzothiazol-2-yl)-1-methyl-urea], the melting point lay in the range of 169 to 171 °C. Moreover, the Ki in series [1] was 12.6 nM.

The term melting point denotes the temperature of the solid-liquid transition.

These data come from patent US7019001B2, “Substituted benzothiazole amide derivatives” (Hoffman-La Roche Inc., priority 2001, dated 2006).
